Entries after “also recorded” stand apart in the source; their conditions may differ. Counter-ions that a name gives are not always drawn.
What was measured:
[1] = tested on: male BALB/c mice with sciatic nerve transaction; assay: Von Frey test, hindpaw withdrawal threshold in sciatic nerve transaction (SNT) neuropathic pain model; type: in vivo
Experimental: (§1) Lyophilized andrographolide powder is dissolved in DMSO and subsequently diluted to 2.86 mM (1 mg/mL) in 90% normal saline and 10% DMSO for storage. The mixture is injected into the peritoneum (body cavity) of each animal (intraperitoneal injection) based on 5 mg/kg animal weight, for example, a 30 g mouse is injected with 150 μL of saline containing 0.15 mg of andrographolide. NSAID drugs (Diclofenac sodium salt) may be purchased from Sigma (D6899), and diluted to 2.86 mM (0.91 mg/mL) in 90% saline and 10% DMSO for storage. The NSAID drugs is administered via intraperitoneal injection based on […] animal weight, for example, a 30 g mouse is injected with 165 μL of saline containing 0.15 mg of NSAID drugs. The number of molecules administered is less in andrographolide treated mouse than in NSAID drugs treated […]. These drugs are administered daily after surgery.
(§2) An operation for inducing the sciatic nerve transaction of BALB/c mice is processing as follows. After isoflurane anesthesia is applied to male BALB/c mice, which have about 8 weeks of age and have a weight of approximately 30 g, the skin of the right thigh is slit to expose the muscle. Then a blunt instrument is used to spread open the biceps femoris to expose the sciatic nerve and its three nerve branches, which are the sural nerve, common peroneal nerve and tibial nerve. Then a sterilized no. 4-0 chromium wire is used to tie the sciatic nerve, and approximately 2-4 mm of the ends of the common peroneal nerve and the tibial nerve are cut at a position near the tying position. Care is taken to avoid touching and stretching the sural nerve. The muscle and skin are closed in two separate layers. For sham surgery, the sciatic nerve is exposed as described above but no contact is made with the nerve. In this embodiment, the nerve is tied to a level such that there is slight sheathing of the nerve in order to avoid affecting the blood circulation in the area. The mice's behavior is observed after several days of rest.
(§3) The experiment is separated into the following groups that receive different treatments. In the normal group, no surgery is carried out and no andrographolide or NSAID drugs are administered to mice. In the pain group (OP-saline), saline is given to mice daily after surgery. In the control group (Op-NSAIDs), Diclofenac sodium salt is administered to mice daily after surgery. In the experimental group (Op-AP), an andrographolide compound is administered to mice daily after surgery. The means of administration is by intraperitoneal injection. The concentration of drugs for both the control group and the experimental group is 5 mg/kg animal weight, and the average animal weight is 30 g. For the model that uses an in vivo sciatic nerve transaction to simulate pathological pain, the mice behavior is tested on 3, 7, 14 days after surgery. The von Frey hair test is used to determinate the withdrawal threshold of the pathological pain.
Mechanical allodynia threshold at the lateral plantar surface of the hindpaw is assessed before nerve injury (as basal pain threshold) and then testing began on day 3 after surgery and continued for 7 and 14 days after surgery. Mechanical sensitivity is determined by measuring the withdrawal thresholds and reaction ratio to von Frey hairs (Stoelting, Wood Dale, Ill.) using the up and- down method (Dixon 1980) as described by Chaplan (Chaplan, Bach et al. 1994). Animals were placed in a plastic cage with a wire net floor and were allowed to habituate 10-15 min before testing began. Animals were also habituated over a period of 2-3 consecutive days by recording a series of baseline measurements. The filaments were applied in ascending order, each 5 times at an interval of 2-3 s to the plantar surface of the hindpaw (Bourquin, Suveges et al. 2006) and the smallest filament eliciting a foot withdrawal response is considered the threshold stimulus. […]

[2] = tested on: glial fibrillary acidic protein (GFAP); assay: GFAP immunoreactivity in spinal cord astrocytes (L4-L6), immunohistochemical staining and quantification; type: in vivo, mice; details: 5 mg/kg i.p. daily; 7 days after surgery; compared to OP-saline group
Experimental: The following procedure is to ascertain the activity of astrocytic glial cells of the spinal cord. The mice are deeply anaesthetized with sevoflurane and perfused transcardially with saline followed by 0.1 M phosphate buffer solution containing 4% paraformaldehyde. The L4-L6 segment of spinal cord and left and right sciatic nerves are dissected out and post-fixed in a 4% parformaldehye solution at 4° C. overnight, and transferred to a series of solution of phosphate-buffered saline (PBS), graded ethanol/PBS, xylyne, graded xylyne/wax mixture, and finally embedded in wax. A rotary slicer for tissues is used to slice the sample to a transverse section with a thickness of 3 um, and warm water is used to spread and attach to the glass slice.
The wax sections are dewaxed in a series of xylene, graded xylene/ethanol mixture, or graded ethanol mixture, and finally incubation in PBS. […]
The immunoreactivity in each group is analyzed, and the intensity of chromogen staining or fluorescence is determined by photo form 4-5 independent animals. The image of the photo is analyzed using the same settings for quantitative comparison. All measured pixels in a specific area are analyzed by the ImageJ software on 0 (black) to 255 (white) scales. The total number of pixels having a value less than 50 in the photo is calculated and used to estimate the value of immunoreactivity in the area of interest.

[3] = tested on: male BALB/c mice with sciatic nerve transaction; assay: Von Frey test, withdrawal rate (reaction types II-IV) with 0.02 g and 0.07 g fibers in SNT neuropathic pain model; type: in vivo; details: 5 mg/kg i.p. daily; for withdrawal rate, von Frey fiber of 0.02 g, right hindpaw: 3, 7 and 14 days after surgery
Experimental: as §1, §2, §3
Mechanical allodynia threshold at the lateral plantar surface of the hindpaw is assessed before nerve injury (as basal pain threshold) and then testing began on day 3 after surgery and continued for 7 and 14 days after surgery. Mechanical sensitivity is determined by measuring the withdrawal thresholds and reaction ratio to von Frey hairs (Stoelting, Wood Dale, Ill.) using the up and- down method (Dixon 1980) as described by Chaplan (Chaplan, Bach et al. 1994). […]

Structure (SMILES) | left hindpaw withdrawal threshold (contralateral, mirror pain), persistence of higher threshold ([1]; 5 mg/kg i.p. daily, 7-14 days post-operation, compared to saline group) | left hindpaw withdrawal threshold (contralateral, mirror pain) ([1]; 5 mg/kg i.p. daily, 3 days after surgery, compared to saline group) | GFAP immunoreactivity of the astrocytes, L4-L6 spinal area [2] | withdrawal rate, von Frey fiber of 0.02 g, right hindpaw ([3]; compared with Op-NSAID group) | withdrawal rate, von Frey fiber of 0.02 g, right hindpaw ([3]; compared with Op-saline group) | withdrawal rate, fiber of 0.07 g, difference to Op-NSAID group ([3]; 7-14 days after surgery) | withdrawal rate, fiber of 0.07 g, difference to Op-NSAID group ([3]; 3 days after surgery) | withdrawal rate, fiber of 0.07 g ([3]; compared to Op-saline group) | right hindpaw withdrawal threshold ([1]; 5 mg/kg i.p. daily after surgery, 3, 7 and 14 days after surgery, compared to OP-saline group) | left hindpaw withdrawal threshold (contralateral, mirror pain) ([1]; 5 mg/kg i.p. daily, 3, 7 and 14 days after surgery, compared to saline group and NSAIDs group) | right hindpaw withdrawal threshold, effect compared with NSAID drugs ([1]; 5 mg/kg i.p. daily, 3 and 14 days after surgery, vs Op-NSAIDs (Diclofenac sodium salt)) | degree of relief from mechanical allodynia compared with same dose of NSAID drugs ([1]; 5 mg/kg i.p. daily, overall summary)
O=C(O)Cc1ccccc1Nc1c(Cl)cccc1Cl [NSAIDS, Diclofenac sodium salt, reference compound] | does not sustain | higher (although not significant) |  |  |  |  |  |  |  |  |  | 
C=C1CC[C@@H]2[C@](C)(CO)[C@H](O)CC[C@@]2(C)[C@@H]1C/C=C1/C(=O)OC[C@H]1O [andrographolide] |  |  | reduced trend | very significant lower | very significant low | significant | not significant | reduced pain sensation | significantly increased; also recorded: significant increase | significantly increased | more significant effect | better
